According to patent US5238689A, “Use of ruthenium red as immunosuppressive agents” (Procept, Inc., priority 1992, dated 1993):
Where “and” joins values, the source holds several entries; their conditions need not be identical. Equal entries are not always repeated. Where two headings read alike, the source gives them in different places.

Experiments:
[1] = tested on: transfected Jurkat T cells; assay: Calcium influx into activated human T cells (Fluo-3AM); format: cell-based
Method: To uncover the mode of action of Ruthenium Red, additional experiments were performed. Because it is known that this compound effects Ca^2+ levels in cells, we examined whether Ruthenium Red prevents the rise in intracellular Ca^2+ that accompanies T cell activation. The Ca^2+ -sensitive dye, Fluo-3AM (Molecular Probes, Inc., Eugene, Oreg.), can be used to detect intracellular Ca^2+. For these studies, transfected Jurkat T cells were incubated with Fluo-3AM (1 μM) for one hour at room temperature. The cells were then washed three times and incubated in 1 ml. volumes (5×10^5 cells) with various agents to trigger T cell activation and thus Ca^2+ uptake. Ruthenium Red was added at a concentration of 1 μg/ml (1.27 μM).

[2] = tested on: smooth muscle plasma membrane of pig stomach cells; details: cited from earlier work
Lewis lung carcinoma = details: mice treated with the dye; cited from earlier work
[3] = tested on: mitochondria of rat liver cells; details: cited from earlier work
[4] = tested on: specific antibody to cytochrome c
Method: The remaining mice in this study continued on their assigned treatment and were bled on day 23, as in the original pilot study, and sera were tested for specific antibodies in the ELISA. The data has been expressed as the mean of the endpoint dilution.

[5] = tested on: specific antibodies to cytochrome c; details: 4 mg/kg i.p. daily, 2 days before and 12 days after immunization; day 23
[6] = tested on: T cells activated with HSV-1; details: 1 μg/ml
Method: In another study, T cells were activated with HSV-1 as described before and the Ruthenium Red (1 μg/ml) was added either at the start of culture (time 0) or after various delays.

[7] = tested on: human T cell (PBL) proliferation; details: for % Inhibition: mean of 5 separate experiments
[8] = tested on: human peripheral blood lymphocytes (PBL's); details: for 3H-thymidine uptake / % Inhibition: Ruthenium Red 0.2 μg/ml, 3 days
Method: For these studies, human peripheral blood lymphocytes (PBL's) were incubated in vitro with varying concentrations of IL-2 and in the presence or absence of Ruthenium Red (0.2 μg/ml). After 3 days of culture, ^3 H-thymidine was added for 16 hr, cells were harvested, and the filters counted.

T cells = details: mean of 4 determinations
Method: Alloreactivity was measured by stimulating T cells from one donor with inactivated lymphocytes from a second donor. The inhibition values represent the means of 4 separate determinations.

[9] = tested on: T cell responses to cytochrome c
Method: For these studies, B10.A mice were treated with Ruthenium RED as before and immunized with cytochrome c. On day 7 after challenge with antigen, draining lymph nodes were removed and single cell suspensions of lymphocytes were prepared. The lymphocytes were counted to estimate overall yields and were cultured in vitro with antigen (100 μg/ml) for three days prior to addition of tritiated thymidine to quantitate proliferation.

In the case of `CNc1ccc2oc(C[C@H]3O[C@@]4(CC[C@H]3C)O[C@H]([C@H](C)C(=O)c3ccc[nH]3)[C@H](C)C[C@H]4C)nc2c1C(=O)O` [Calcium ionophore, reference compound], the “% Fluorescent cells” value ([1]; Calcium ionophore, without Ruthenium Red) is reported as 84.6%.
For `N.N.N.N.N.N.N.N.N.N.N.N.N.N.[Cl-].[Cl-].[Cl-].[Cl-].[Cl-].[Cl-].[O-2].[O-2].[Ru+3].[Ru+3].[Ru+4]` [Ruthenium Red], the “Ca2+ efflux” value [2] is given as “inhibit Ca^2+ efflux”, the “effect on calcium ion transport” value ([2]; smooth muscle plasma membrane of pig stomach cells) is given as “affect calcium ion transport” and the “anti-tumor properties, growth of Lewis lung carcinoma” value (Lewis lung carcinoma) is given as “growth inhibition of Lewis lung carcinoma in mice”. The “effect on calcium ion transport” value [3] was “affect calcium ion transport”, the “High Responders” value ([4]; antibody titer greater than 1:5,120, day 23) was 2/6 and the “mice with titers greater than 1:5000” value ([4]; day 23) was 2 of the 6. The “Mean Titer” value ([4]; mean of the endpoint dilution, day 23) was 18,613 ± 13,020, the “fraction of mice with a greatly reduced response to antigen” value ([4]; pilot study, proliferative data and antibody titers together) was “two thirds” and the “reduction in antibody levels compared to control mice who received water” value [5] was 70%. The “percentage of cells staining positively with the dye (intracellular Ca2+)” value ([1]; 1 μg/ml (1.27 μM)) was “major reduction in the percentage of cells staining positively with the dye”, the “% Fluorescent cells” value ([1]; Activation (anti-CD2), Ruthenium Red 1 μg/ml (1.27 μM)) was 17.2% and the “latest time of addition after triggering with antigen still producing maximal inhibition” value [6] was no more than 20 h. The “% Inhibition” value ([6]; time of addition 0 hr) was 95%, the “% Inhibition” value ([6]; time of addition 1 hr) was 97% and the “% Inhibition” value ([6]; time of addition 2 hr) was 96%. For the same compound, the “% Inhibition” value ([6]; time of addition 4 hr) was 92%, the “% Inhibition” value ([6]; time of addition 20 hr) was 86% and the “% Inhibition” value ([6]; time of addition 33 hr) was 58%. For the same compound, the “% Inhibition” value ([7]; 0.01 μg/ml (0.01 μM)) was 17%, the “% Inhibition” value ([7]; 0.1 μg/ml (0.13 μM)) was 31% and the “% Inhibition” value ([7]; 0.2 μg/ml (0.25 μM)) was 60%. The “% Inhibition” value ([7]; 1.0 μg/ml (1.27 μM)) was 89%, the “% Inhibition” value ([7]; 2.5 μg/ml (3.18 μM), 3.18 µM) was ~90% and 96% and the IC50 ([7]; read-out: IC50, inhibition of T cell proliferation, antigen-stimulated human PBL) was roughly 200 nM. For the same compound, the 3H-thymidine uptake ([8]; IL-2 0.01 U/ml) was 1,154 cpm, the “% Inhibition” value ([8]; IL-2 0.01 U/ml) was 80% and the 3H-thymidine uptake ([8]; IL-2 1 U/ml) was 2,805 cpm. For the same compound, the “% Inhibition” value ([8]; IL-2 1 U/ml) was 92%, the 3H-thymidine uptake ([8]; IL-2 100 U/ml) was 3,839 cpm and the “% Inhibition” value ([8]; IL-2 100 U/ml) was 88%. For the same compound, the “proliferative response induced by IL-2 alone” value ([8]; PBL's) was “can be inhibited by this compound”, the “% Inhibition of alloreactivity” value (T cells; 0.1 μg/ml (0.13 μM)) was 69% and the “% Inhibition of alloreactivity” value (T cells; 0.2 μg/ml (0.25 μM)) was 77%. For the same compound, the “% Inhibition of alloreactivity” value (T cells; 1.0 μg/ml (1.27 μM)) was 85%, the “% Inhibition of alloreactivity” value (T cells; 2.5 μg/ml (3.18 μM)) was 92% and the “Cell Yield (draining lymph nodes)” value ([9]; mouse 14, day 7) was 0.26 × 10^6. The “Cell Yield (draining lymph nodes)” value ([9]; mouse 16, day 7) was 0.81 × 10^6, the “Cell Yield (draining lymph nodes)” value ([9]; mouse 17, day 7) was 16 × 10^6 and the Specific proliferation ([9]; mouse 17, day 7, antigen 100 μg/ml, three days in vitro) was 22,236 cpm. The “response to cytochrome c” value ([9]; third mouse) was “responded normally to cytochrome c” and the “enlargement of lymph nodes following immunization” value ([9]; two of the three mice) was “no enlargement of lymph nodes following immunization”.
